Data on 35 compounds can be found in EPA's ToxValDB 9.5.

The term NOAEL denotes the highest dose or exposure tested at which no adverse effect was seen.

The test system of the series is Rattus norvegicus. The conditions noted are these: oral.
The mark [1] stands for this setting: short-term, duration: 28 days, gavage, M, Sprague-Dawley, Clinical Observation: Locomotor activity decrease, Respiratory rate decrease, Incomplete eyelid opening + Blood Chemistry: TG decrease + ….
Where [2] appears, read: chronic, duration: 17 weeks, gavage, F, Ash/CSE, Body Weight Changes: decrease.
Where [3] appears, read: chronic, duration: 17 weeks, gavage, M, Ash/CSE, Body Weight Changes: decrease.
[4] abbreviates: subchronic, gavage, M, Sprague-Dawley, Clinical Observation: Salivation + Body Weight Changes: Body weight gain decrease + Food Consumption: decrease + Water Consumption: increase….
The mark [5] stands for this setting: subchronic, gavage, M, Sprague-Dawley, Clinical Observation: Salivation (transient) + Functional Observational Battery: Salivation (transient)Defecation increase(transient) + ….
The mark [6] stands for this setting: subchronic, gavage, M, Sprague-Dawley, Body Weight Changes: decrease, Gain decrease + Food Consumption: decrease + Hematology: RBC decrease, Hgb decrease, Hct decrease, Ret ….

As for `[Cu+2].[O-]n1ccccc1=S.[O-]n1ccccc1=S` [Copper Omadine], the NOEL (short-term, duration: 28 days, gavage, M/F, Deaths + Clinical Observation: Ataxic gait Dragging of hindlimbs Emaciation + Body Weight Changes: decrease + Food Consumption: decrease + …) was 2.5 mg/kg-day. For the compound `CC=CC(=O)N(CC)c1ccccc1C` [Crotamiton], the NOEL is 60 mg/kg-day (short-term, duration: 28 days, gavage, F, Sprague-Dawley, Clinical Observation: Salivation + Body Weight Changes: Weight gain decrease, increase + Food Consumption: increase + Urinalysis: Occult …) and 12 mg/kg-day (short-term, duration: 28 days, gavage, M, Sprague-Dawley, Clinical Observation: Salivation + Body Weight Changes: Weight gain decrease, increase + Food Consumption: increase + Urinalysis: Occult …).

In the case of `CC(C)c1ccc(N)cc1` [Cumidine], the NOEL (subchronic, gavage, M, Sprague-Dawley, Clinical Observation: Anemia in eyes + Hematology: Met-Hgb increase, Hct decrease, Hgb decrease, RBC decrease, MCV increase, MCH increase, …) stood at 6 mg/kg-day.

Turning to `O=C1CCCCC1C1=CCCCC1` (stereo not given) [Cyclohexanone, 2-(1-cyclohexen-1-yl)-], under “subchronic, gavage, M, Sprague-Dawley, Clinical Observation: Salivation + Body Weight Changes: decrease + Blood Chemistry: gamma-GTP increase, TP increase, Alb increase, T-Cho …”, the NOEL came out at 40 mg/kg-day. Compound `COC(=O)CC(=O)OC` [Dimethyl malonate] showed an NOAEL (subchronic, gavage, M, Wistar, Histopathology: Liver: Hypertrophy, hepatocyte) of 300 mg/kg-day. With `CN(C)CCCCl.Cl` [Dimethylaminopropyl chloride hydrochloride], under “subchronic, drinking water, M/F, Fischer 344, Deaths + Body Weight Changes: decrease + Blood Chemistry: TP decrease Alb decrease Bile acid increase + Histopathology: Nose-Goblet cell, …”, the NOEL is < 6.25 mg/kg-day. As for `CC(CO)OC(C)CO.CC(O)COCC(C)O` (stereo not given) [Dipropylene glycol], under setting [1], the NOAEL was found to be 1000 mg/kg-day and the NOEL came out at 200 mg/kg-day.

Consider `CC(C)C[C@H]1C(=O)N2CCC[C@H]2[C@]2(O)O[C@](NC(=O)[C@@H]3C=C4c5cccc6[nH]cc(c56)C[C@H]4N(C)C3)(C(C)C)C(=O)N12` [Ergocryptine], for which the NOEL was found to be 0.36 mg/kg-day (subchronic, diet, F, Hsd/Ola/SD, Clinical Observation: Hyperkinesia, dirty hair Hunchback position Aggression + Body Weight Changes: decrease + Food Consumption: decrease + …) and 4 mg/kg-day (subchronic, diet, M/F, Hsd/Ola/SD, Clinical Observation: Hyperkinesia, dirty hair Hunchback position Aggression + Body Weight Changes: decrease + Food Consumption: decrease + …). As for `CCOCCOCCOC` [Ethane, 1-ethoxy-2-(2-methoxyethoxy)-], the NOAEL (subchronic, duration: 42 days, gavage, M, CD(SD), Clinical Observation: Decrease in locomotor activity Salivation (transient) + Food Consumption: decrease + Urinalysis: K decrease, Cl …) is 62.5 mg/kg-day. With `Nc1ccc2cc(S(=O)(=O)CCO)ccc2c1` [Ethanol, 2-[(6-amino-2-naphthalenyl)sulfonyl]-], the NOEL (short-term, duration: 28 days, gavage, M/F, Body Weight Changes: Weight gain decrease + Urinalysis: pH decrease(slight) + Hematology: RBC decrease, RET increase, PT increase + Absolute…) worked out at 15 mg/kg-day.

Consider `Nc1nc(N)nc(-c2cc(Cl)ccc2Cl)n1.O=C(O)/C=C\C(=O)O` [Irsogladine maleate], for which the NOEL (chronic, duration: 91 days, gavage, M/F, Sprague-Dawley, Deaths + Clinical Observation: Piloerection Salivation Locomotor activity decrease, Decrease in reactivity Soiled fur Brownish urine Soiled …) was 3 mg/kg-day. For the compound `O=C(O)CCCC/C=C(\c1ccccc1)c1cccnc1` [Isbogrel], for the setting “subchronic, gavage, M/F, CD, Clinical Observation: Salivation + Hematology: RBC decrease, HCT decrease, HGB decrease + Blood Chemistry: Bil increase, GLUC decrease, TP …”, the NOAEL is < 100 mg/kg-day. In the case of `CC(C)CCO` [Isopentyl alcohol], under setting [2], the NOAEL came out at 1000 mg/kg-day and the NOEL is 1000 mg/kg-day. Under setting [3], this compound came in with a no observed adverse effect level (NOAEL) of 500 mg/kg-day and an NOEL of 500 mg/kg-day.

Take `CC1(C)CC(N)CC(C)(CN)C1` (stereo not given) [Isophorone diamine]: where the note is “subchronic, duration: 90 days, drinking water, M/F, Wistar, Body Weight Changes: Weight gain decrease + Food Consumption: decrease + Water Consumption: decrease + Absolute Organ Weight: Kidney …”, the NOAEL was determined as 60 mg/kg-day. In the case of `CC(=O)N1CCN(c2ccc(OC[C@@H]3CO[C@@](Cn4ccnc4)(c4ccc(Cl)cc4Cl)O3)cc2)CC1` [Ketoconazole], where the note is “short-term, duration: 28 days, gavage, M/F, Sprague-Dawley, Body Weight Changes: decrease + Blood Chemistry: ALT increase, Estrus cycle increase, T3 decrease, T4 decrease, TSH increase, Testosterone …”, the NOEL was < 6.25 mg/kg-day.

In the case of `CC1(C)Oc2ccc(C#N)cc2[C@@H](N2CCCC2=O)[C@@H]1O` [Levcromakalim], for the setting “chronic, duration: 91 days, diet, M/F, CD, Body Weight Changes: increase.3 + Food Consumption: increase.3 + Water Consumption: increase + Urinalysis: Volume increase Osmolality …”, the NOAEL worked out at 0.03 mg/kg-day.

Regarding `CCCCCC1C(=O)CCC1CC(=O)OC` (stereo not given) [Methyl dihydrojasmonate], under setting [4], the NOAEL is 100 mg/kg-day and the NOEL stood at 100 mg/kg-day.

Regarding `CC1CCCCC1` [Methylcyclohexane], under setting [5], the LOEL was 250 mg/kg-day and the NOEL was found to be 62.5 mg/kg-day. Take `CC(C)CCCCCOC(=O)C[S][Sn]([CH3])([S]CC(=O)OCCCCCC(C)C)[S]CC(=O)OCCCCCC(C)C` [Methyltin tris(isooctyl mercaptoacetate)]: where the note is “subchronic, duration: 90 days, diet, M, Wistar, Blood Chemistry: BUN increase + Relative Organ Weight: Thymus increase, Kidney increase + Histopathology: Kidney: Dilatation, tubule, cystic…”, the NOAEL stood at 48 mg/kg-day. As to `CCC(C)=NO[Si](C)(ON=C(C)CC)ON=C(C)CC` [Methyltri(2-butanoneoximyl)silane], the NOAEL (short-term, duration: 28 days, gavage, M, Wistar, Functional Observational Battery: Rearing decrease, Grip strength(fore and hind limb) decrease, Mean body temperature decrease + Body Weight…) was found to be 10 mg/kg-day. Regarding `CC(CN1CCOCC1)OCCN1CCOCC1` (stereo not given) [Morpholine, 4-[2-[1-methyl-2-(4-morpholinyl)ethoxy]ethyl]-], the NOEL (short-term, duration: 28 days, gavage, M/F, Clinical Observation: Salivation Ptosis Reddish pinna Swelling of pinna + Body Weight Changes: Body weight gain decrease + Food Consumption…) is < 8 mg/kg-day. With `CCn1cc(C(=O)O)c(=O)c2ccc(C)nc21` [Nalidixic acid], where the note is “subchronic, duration: 13 weeks, diet, M/F, Fischer 344, Deaths + Body Weight Changes: decrease + Food Consumption: decrease + Absolute Organ Weight: Liver increase + Relative Organ Weight: Liver …”, the NOEL was found to be 96 mg/kg-day. On to `NC(=O)N/N=C/c1ccc([N+](=O)[O-])o1` [Nitrofurazone], for which, under “subchronic, duration: 13 weeks, diet, M/F, Fischer 344, Body Weight Changes: decrease + Food Consumption: decrease + Absolute Organ Weight: Liver increase + Relative Organ Weight: Liver increase…”, the NOEL was < 14.4 mg/kg-day. In the case of `CCCCCCCCC` [Nonane], the NOAEL (subchronic, duration: 90 days, gavage, F, Fischer 344, Absolute Organ Weight: Liver increase, Lung increase, Adrenal increase, Spleen decrease, Ovary decrease + Histopathology: Alimentary tract: …) was determined as 100 mg/kg-day. For `ClCCCCCCCCCl` [Octane, 1,8-dichloro-], for the setting “short-term, duration: 28 days, gavage, M/F, Sprague-Dawley, Deaths + Clinical Observation: Salivation + Functional Observational Battery: Grip strength (forelimb) decrease, Grip strength (hindlimb) …”, the NOEL is < 40 mg/kg-day.

For the compound `FC(F)(F)C1(F)C(F)(F)C(F)(F)C(F)(F)C(F)(F)C1(F)C(F)(F)F` (stereo not given) [Perfluoro-1,2-dimethylcyclohexane], the NOEL (subchronic, duration: 42 days, gavage, M, CD(SD), Hematology: HGB decrease, HCT decrease + Histopathology: Liver-Hypertrophy, hepatocyte, central) is 300 mg/kg-day. With `O=C(O)C(F)(F)C(F)(F)C(F)(F)C(F)(F)C(F)(F)C(F)(F)C(F)(F)C(F)(F)C(F)(F)C(F)(F)C(F)(F)C(F)(F)C(F)(F)C(F)(F)C(F)(F)C(F)(F)C(F)(F)F` [Perfluorooctadecanoic acid], under setting [6], the LOEL stood at 200 mg/kg-day and the NOEL stood at 40 mg/kg-day. As for `CC(CN1c2ccccc2Sc2ccccc21)N(C)C.Cl` (stereo not given) [Promethazine hydrochloride], for the setting “subchronic, duration: 13 weeks, gavage, M/F, Fischer 344, Deaths + Clinical Observation: Hunched posture Labored respiration Abnormal respiratory sounds + Body Weight Changes: decrease + Absolute …”, the NOEL came out at 3.7 mg/kg-day. Take `CC(=O)/C=C/C=C(\C)CCC=C(C)C` [Pseudoionone]: for the setting “short-term, duration: 28 days, gavage, M/F, Wistar Han, Clinical Observation: Salivation + Body Weight Changes: Weight gain decrease + Hematology: RBC increase, HCT increase, PLT increase, APTT …”, the NOAEL is 50 mg/kg-day. In the case of `Br.CN1[C@@H]2CC(OC(=O)[C@H](CO)c3ccccc3)C[C@H]1[C@@H]1O[C@@H]12.O.O.O` (stereo not given in full) [Scopolamine hydrobromide trihydrate], where the note is “chronic, duration: 14 weeks, gavage, M/F, Fischer 344, Deaths + Clinical Observation: Pupillary dilation Reddening of eyes Hypoactivity + Body Weight Changes: decrease + Hematology: Hgb increase…”, the NOEL was < 15 mg/kg-day. For the compound `CCCCCCC[CH2][Sn]([Cl])([Cl])[Cl]` [Stannane, trichlorooctyl-], the NOAEL (subchronic, duration: 13 weeks, diet, M/F, Wistar, Blood Chemistry: ALP increase + Absolute Organ Weight: Thymus decrease + Relative Organ Weight: Thymus decrease + Histopathology: Thymus- …) came out at 9.6 mg/kg-day and the no-observed-adverse-effect level (NOAEL) (subchronic, duration: 13 weeks, diet, M/F, Wistar, Body Weight Changes: Mean body weight decrease + Food Consumption: decrease + Urinalysis: SG decrease + Hematology: HGB decrease, HCT …) was < 2.88 mg/kg-day. On to `CC(C)(c1cc(Br)c(OCCO)c(Br)c1)c1cc(Br)c(OCCO)c(Br)c1` [Tetrabromobisphenol A bis(2-hydroxyethyl) ether], for which the NOEL (subchronic, gavage, M, Sprague-Dawley, Clinical Observation: Soft stool R + Hematology: Plt increase + Blood Chemistry: BUN increase + Necropsy: Cecum-Distention) worked out at 40 mg/kg-day. `CCCC[N+](CCCC)(CCCC)CCCC.[Br-]` [Tetrabutylammonium bromide]: where the note is “subchronic, gavage, M/F, Sprague-Dawley, Deaths + Clinical Observation: Reddish urine + Body Weight Changes: Gain decrease + Food Consumption: increase + Urinalysis: Light brown …”, the NOEL was determined as 60 mg/kg-day. Regarding `O=C1OC(=O)c2c(Cl)c(Cl)c(Cl)c(Cl)c21` [Tetrachlorophthalic anhydride], where the note is “subchronic, gavage, M/F, Fischer 344, Deaths + Body Weight Changes: decrease + Blood Chemistry: gamma-GTP increase, Glu decrease + Absolute Organ Weight: Spleen decrease, Right …”, the NOEL was < 94 mg/kg-day. `c1ccc2c(c1)CCCC2` [Tetralin]: the NOAEL (short-term, duration: 28 days, gavage, M/F, Wistar, Clinical Observation: Squatting position Closed eyes Reduced activity LethargyTonic convulsion Absence of auditory startle reflex + Body …) turned out to be 15 mg/kg-day.
